Read-outs that look alike come from different tables or passages of the source.
Key:
[1] = tested on: MCF-7 human breast cancer cell line; assay: Short term in vitro cytotoxicity against MCF-7 human breast cancer cell line; settings: MCF7, read-out: Short Term in vitro cytotoxicity MCF-7 IC50 ± SD
Procedure: For some compounds, cytotoxicity against the MCF-7 human breast cancer cell line was determined.

[2] = molecular target: calmodulin dependent cAMP-PDE (Homo sapiens, UniProt P0DP23); assay: Antagonism of calmodulin dependent cAMP-PDE (inhibiting the activation of cyclic AMP phosphodiesterase by calmodulin); assay type: biochemical
oestrogen receptor (ER) = molecular target: T1, oestrogen receptor (ER) (Rattus norvegicus, UniProt P06211); assay: Relative binding affinity for the oestrogen receptor, rat uterine cytosol competitive binding assay
T1 construct: from tissue; host or cells: rat uterine cytosol
T1 sequence (P06211 1-600): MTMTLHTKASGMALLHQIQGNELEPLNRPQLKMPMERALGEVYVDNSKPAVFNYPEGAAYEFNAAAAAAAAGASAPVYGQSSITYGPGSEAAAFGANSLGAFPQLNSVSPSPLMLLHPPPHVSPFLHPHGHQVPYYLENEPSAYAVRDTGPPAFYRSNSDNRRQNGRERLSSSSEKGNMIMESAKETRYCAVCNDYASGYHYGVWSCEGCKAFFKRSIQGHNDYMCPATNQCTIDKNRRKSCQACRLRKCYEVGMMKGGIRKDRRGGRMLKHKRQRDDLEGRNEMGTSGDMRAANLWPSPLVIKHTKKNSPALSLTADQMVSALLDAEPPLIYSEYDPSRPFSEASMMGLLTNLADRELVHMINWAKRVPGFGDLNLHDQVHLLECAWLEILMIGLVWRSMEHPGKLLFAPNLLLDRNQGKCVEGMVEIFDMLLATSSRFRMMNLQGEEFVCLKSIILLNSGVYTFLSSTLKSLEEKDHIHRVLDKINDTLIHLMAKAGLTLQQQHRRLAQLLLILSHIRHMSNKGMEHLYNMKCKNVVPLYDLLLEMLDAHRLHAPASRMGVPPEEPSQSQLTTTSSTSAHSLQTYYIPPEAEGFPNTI
Procedure: For some compounds, cytotoxicity against the MCF-7 human breast cancer cell line was determined. The test methods used were those described by M. G. Rowlands et al., Biochemical Pharmacology 40, 283-289 (1990). The relative binding offinity (RBA) for the oestrogen receptor (ER) was measured in a rat uterine cystosol competitive binding assay as described by A. E. Wakeling, 1987 (Chapter 7 p219-236 in "STEROID HORMONES--A PRACTICAL APPROACH" Eds B. Green and R. E. Leake, IRL Press Ltd, Oxford, UK).

[3] = tested on: receptor from calf uterine cytosol; settings: calf uterine cytosol (oestradiol = 100); J. Med. Chem. 32, 2527-2533 (1989); cited from earlier work
rat uterine receptor = settings: Cancer Research 51, 5851-5858 (1991); cited from earlier work
oestrogen receptor = settings: rat uterine cytosol competitive binding assay; J. Med. Chem. 25, 167-171 (1982); cited from earlier work
[4] = ± SD, read-out: Antagonism of calmodulin dependent cAMP-PDE IC50 ± SD

| SMILES | IC50 [1] | IC50 [2, 4] | Binding affinity for ER, RBA (oestrogen receptor (ER)) | RBA with receptor from calf uterine cytosol [3] | RBA for rat uterine receptor (rat uterine receptor) | IC50 [2] | binding affinity for the oestrogen receptor compared with pyrrolidino tamoxifen itself (n=2) (oestrogen receptor) |
| --- | --- | --- | --- | --- | --- | --- | --- |
| CC/C(=C(\c1ccc(I)cc1)c1ccc(OCCCN2CCCC2)cc1)c1ccccc1 [n = 3, NR^1 = R^2 = pyrrolidino, E-1-(4-(3-(N-pyrrolidino)propoxy)phenyl)-1-(4-iodophenyl)-2-phenyl-1-butene] | 4500 ± 70 nM | 1110 ± 70 nM | 23 |  |  |  |  |
| CC/C(=C(\c1ccc(I)cc1)c1ccc(OCCN2CCCC2)cc1)c1ccccc1 [Idoxifene] | 7270 ± 380 nM | 1450 ± 80 nM |  | 5 | 12.5 |  |  |
| CC/C(=C(\c1ccc(I)cc1)c1ccc(OCCN(C)C)cc1)c1ccccc1 [4-iodotamoxifen] | 7630 ± 60 nM | 2300 ± 420 nM |  | 5 | 12.5 |  |  |
| C[C@]12CC[C@@H]3c4ccc(O)cc4CC[C@H]3[C@@H]1CC[C@@H]2O [17β-estradiol] |  |  |  | 100 |  |  |  |
| CC/C(=C(\c1ccc(I)cc1)c1ccc(OCCCCN(C)C)cc1)c1ccccc1 [n = 4, R^1 = R^2 = CH3, E-1-(4-(4-(Dimethylamino)butoxy)phenyl)-1-(4-iodophenyl)-2-phenyl-1-butene] |  | 2250 ± 180 nM | 25 |  |  |  |  |
| CC/C(=C(\c1ccc(I)cc1)c1ccc(OCCCCCCCCN2CCCC2)cc1)c1ccccc1 [n = 8, NR^1 = R^2 = pyrrolidino] |  | 260 ± 50 nM | 4 |  |  |  |  |
| CC/C(=C(\c1ccc(I)cc1)c1ccc(OCCCN(C)C)cc1)c1ccccc1 [n = 3, R^1 = R^2 = CH3, E-1-(4-(3-(Dimethylamino)propoxy)phenyl)-1-(4-1iodophenyl)-2,phenyl-1-butene] |  | 2020 ± 170 nM |  |  |  |  |  |
| CC/C(=C(\c1ccccc1)c1ccc(OCCN(C)C)cc1)c1ccccc1 [Tamoxifen] | 14000 ± 1000 nM |  |  | 1 | 5 | 6750 ± 1060 nM |  |
| CC/C(=C(\c1ccccc1)c1ccc(OCCCN2CCCC2)cc1)c1ccccc1 |  |  |  |  |  |  | lower binding affinity for the oestrogen receptor |
| CC/C(=C(\c1ccc(I)cc1)c1ccc(OCCCCN2CCCC2)cc1)c1ccccc1 [n = 4, NR^1 = R^2 = pyrrolidino, E-1(4-(4-(N-pyrrolidino)butoxy)phenyl)-1-(4-iodophenyl)-2-phenylbutene] | 3990 ± 600 nM | 1010 ± 80 nM | 9 |  |  |  |  |
